Measured values reported in publication PMC4232510, “Identification of Functionally Important Residues of the Rat P2X4 Receptor by Alanine Scanning Mutagenesis of the Dorsal Fin and Left Flipper Domains” (PLoS ONE, 2014).
Numbering of substitutions follows the chain as printed.

What was measured:
Assay in all cases: whole-cell patch clamp, HEK293T cells expressing mutant
Assay type in all cases: cell-based
Details in all cases: for relative responsiveness: 100 µM agonist 2 s, relative to ATP (100%)
rP2X4R I205A mutant = biological target: T1, rP2X4R I205A mutant (Rattus norvegicus, UniProt P51577, I205A)
T1 construct: expressed in transfected cells; host or cells: HEK293T
T1 sequence (P51577 1-388 I205A): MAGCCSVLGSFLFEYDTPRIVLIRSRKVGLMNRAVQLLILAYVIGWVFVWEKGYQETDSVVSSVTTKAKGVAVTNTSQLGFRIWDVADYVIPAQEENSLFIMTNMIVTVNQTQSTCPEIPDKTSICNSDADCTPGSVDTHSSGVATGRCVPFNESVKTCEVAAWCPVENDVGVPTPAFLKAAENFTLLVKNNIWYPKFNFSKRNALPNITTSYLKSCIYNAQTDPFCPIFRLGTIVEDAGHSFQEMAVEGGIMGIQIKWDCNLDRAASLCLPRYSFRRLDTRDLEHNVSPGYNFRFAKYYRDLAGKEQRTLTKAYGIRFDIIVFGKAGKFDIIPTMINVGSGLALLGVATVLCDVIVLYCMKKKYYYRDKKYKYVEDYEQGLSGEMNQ
Experimental: (§1) To express the recombinant channels, we used human embryonic kidney (HEK) 293T cells (American Type Culture Collection, Rockville, MD, USA) grown in Dulbecco modified Eagle’s medium (Thermo Fisher Scientific, Waltham, MA) supplemented with 10% fetal bovine serum (Sigma-Aldrich, St Louis, MO), 50 U/ml penicillin and 50 µg/ml streptomycin (both Thermo Fisher Scientific, Waltham, MA) in a humidified 5% CO2 and 95% air at 37°C. Cells were cultured in 75 cm^2 plastic culture flasks (NUNC, Rochester, NY) for 36–72 hours until reaching 80–95% confluence. Before the day of transfection, the cells were plated on 35 mm culture dishes (Sarstedt, Newton, NC) and incubated at 37°C for at least 24 h. Transfection was done using 2 µg of either WT or mutant receptor DNA with 2 µl of JetPrime reagent in 2 ml of Dulbecco modified Eagle’s medium, according to manufacturer’s instructions (PolyPlus-transfection, Illkirch, France). Transfected cells were identified by the fluorescence signal of EGFP using the Olympus IX71 inverted research microscope with fluorescence illuminators (Model IX71; Olympus, Melville, NY).
(§2) cDNAs encoding the sequences of the rP2X4 and mutated subunits were subcloned into the pIRES2-EGFP vector (Clontech, Mountain View, CA, USA). To generate the mutants, oligonucleotides (synthesized and provided by VBC-Genomics, Vienna, Austria or Sigma Aldrich) containing specific mutagenesis mismatches were introduced into the rP2X4/pIRES2-EGFP template using PfU Ultra DNA polymerase (Thermo Fisher Scientific). A High-Speed Plasmid Mini Kit (Geneaid, Taipei City, Taiwan) was used to isolate the plasmids for transfection. Dye terminator cycle sequencing (ABI PRISM 3100, Applied Biosystems, Foster City, CA) was used to identify and verify the presence of the mutations. The sequencing was performed by the DNA Sequencing Laboratory, Institute of Microbiology, ASCR, Prague.
(§3) ATP-induced currents were recorded from whole cells clamped to −60 mV using an Axopatch 200B patch-clamp amplifier (Axon Instruments, Union City, CA). The recordings were captured and stored using the Digidata 1322A and pClamp9 software package (Axon Instruments). During the experiments, the cell culture was perfused with a bath solution containing: 142 mM NaCl, 3 mM KCl, 2 mM CaCl2, 1 mM MgCl2, 10 mM 4-(2-Hydroxyethyl)piperazine-1-ethanesulfonic acid (HEPES) and 10 mM D-glucose, adjusted to pH 7.3 with 1 M NaOH. The patch electrodes were filled with a solution containing: 154 mM CsCl, 11 mM EGTA and 10 mM HEPES, adjusted to pH 7.2 with 1.6 M CsOH. The whole-cell configuration was used to abolish the influence of natively present metabotropic receptors for ATP and we used intracellular cesium to block any kind of possible background potassium conductance. Potency of ATP was measured based on the activation of naïve (not previously stimulated) receptors using a short (2–5 s) application of various concentrations of ATP. The results are expressed as molar concentration of ATP required to produce 50% of the maximal response (EC50). One or two responses were recorded from one cell, if not otherwise stated, and responses from different cells were pooled. The maximum current amplitude (Imax) was measured in response to application of supramaximal concentrations (100–1000 µM) of ATP. Responsiveness to P2XR agonists 2-MeS-ATP, ATPγS, BzATP, and α,β-meATP, all applied in 100 µM concentration, was expressed as percentage of response in comparison to 100 µM ATP treatment for selected mutants. In all mutants, the whole cell currents were also measured in the presence of 3 µM IVM, which was dissolved in dimethyl sulfoxide, stored in stock solutions at 10 mM, and diluted to required concentrations in bath solution in the day of experiment. The control and drug containing solutions were applied via a rapid (exchange time 30–40 ms) perfusion system (RSC-200, BIOLOGIC, Claix, France). All other chemicals are from Sigma-Aldrich. […]

rP2X4R T210A mutant = biological target: T2, rP2X4R T210A mutant (Rattus norvegicus, UniProt P51577, T210A)
T2 construct: expressed in transfected cells; host or cells: HEK293T
T2 sequence (P51577 1-388 T210A): T1 sequence (P51577 1-388 I205A) with A205I, T210A
Experimental: as §1, §2, §3

rP2X4R T211A mutant = biological target: T3, rP2X4R T211A mutant (Rattus norvegicus, UniProt P51577, T211A)
T3 construct: expressed in transfected cells; host or cells: HEK293T
T3 sequence (P51577 1-388 T211A): T1 sequence (P51577 1-388 I205A) with A205I, T211A
Experimental: as §1, §2, §3

[1] = 100 µM ATP 60 s, biexponential fit
[2] = contribution of τdes2, 100 µM ATP 60 s
[3] = decay after removal of 1 or 3 µM ATP, 3 µM IVM
[4] = naïve receptors, 2–5 s application
[5] = 3 µM IVM 4-6 min vs IVM-untreated

“2′(3′-O-(4-Benzoylbenzoyl)adenosine 5′-triphosphate [BzATP]” gave a relative responsiveness (rP2X4R I205A mutant) of 4.4±2.6 %, a relative responsiveness (rP2X4R T210A mutant) of 23.9±3.2 % and a relative responsiveness (rP2X4R T211A mutant) of 23.4±4.7 %.

`CSc1nc(N)c2ncn([C@@H]3O[C@H](COP(=O)(O)OP(=O)(O)OP(=O)(O)O)[C@@H](O)[C@H]3O)c2n1` [2-MeS-ATP, 2-(Methylthio)adenosine 5′-triphosphate] gave a relative responsiveness (rP2X4R I205A mutant) of 35.6±1.9 %, a relative responsiveness (rP2X4R T210A mutant) of 59.2±6.9% and a relative responsiveness (rP2X4R T211A mutant) of 79.3±6.7%.

For `Nc1ncnc2c1ncn2[C@@H]1O[C@H](COP(=O)(O)OP(=O)(O)OP(=O)(O)O)[C@@H](O)[C@H]1O` [ATP], the “EC50 rightward shift compared to WT” value (rP2X4R I205A mutant) was “approximately 10 fold”, the τdes1 (rP2X4R I205A mutant; [1]) was 1.5 ± 0.7 s and the τdes2 (rP2X4R I205A mutant; [1]) was 8.1 ± 1.3 s. For the same compound, the Imax (rP2X4R I205A mutant; 100–1000 µM ATP) was 0.6 ± 0.13 nA, the “Imax+IVM” value (rP2X4R I205A mutant; ATP after 3 µM IVM 4-6 min) was 4.3 ± 0.4 nA and the “A2 /(A1+A2)” value (rP2X4R I205A mutant; [2]) was 51 ± 4%. For the same compound, the “τoff +IVM” value (rP2X4R I205A mutant; [3]) was 4.1 ± 0.9 s, the EC50 (rP2X4R I205A mutant; [4]) was 26 ± 7.7 µM and the τdes (rP2X4R I205A mutant; weighted, 100 µM ATP 60 s) was 4.9 ± 0.9. s. For the same compound, the τdes1 (rP2X4R T210A mutant; [1]) was 2.0 ± 0.3 s, the τdes2 (rP2X4R T210A mutant; [1]) was 14.4 ± 2.5 s and the Imax (rP2X4R T210A mutant; 100–1000 µM ATP) was 1.9 ± 0.2 nA. For the same compound, the “Imax+IVM” value (rP2X4R T210A mutant; ATP after 3 µM IVM 4-6 min) was 3.5 ± 0.6 nA, the “A2 /(A1+A2)” value (rP2X4R T210A mutant; [2]) was 52 ± 8% and the “τoff +IVM” value (rP2X4R T210A mutant; [3]) was 5.5 ± 0.4 s. The EC50 (rP2X4R T210A mutant; [4]) was 26 ± 2.6 µM, the τdes (rP2X4R T210A mutant; weighted, 100 µM ATP 60 s) was 8.9 ± 2.1 s and the τdes1 (rP2X4R T211A mutant; [1]) was 0.9 ± 0.4 s. For the same compound, the τdes2 (rP2X4R T211A mutant; [1]) was 8.3 ± 2.4 s, the Imax (rP2X4R T211A mutant; 100–1000 µM ATP) was 2.3 ± 0.3 nA and the “Imax+IVM” value (rP2X4R T211A mutant; ATP after 3 µM IVM 4-6 min) was 3.9 ± 0.7 nA. The “A2 /(A1+A2)” value (rP2X4R T211A mutant; [2]) was 60 ± 8%, the “τoff +IVM” value (rP2X4R T211A mutant; [3]) was 28 ± 2.5 s and the EC50 (rP2X4R T211A mutant; [4]) was 2.6 ± 0.6 µM. For the same compound, the τdes (rP2X4R T211A mutant; weighted, 100 µM ATP 60 s) was 5.0 ± 1.1 s.

Work on `Nc1ncnc2c1ncn2[C@@H]1O[C@H](CO[P@](=O)(O)O[P@](=O)(O)O[P@@](=O)(O)S)[C@@H](O)[C@H]1O` [ATPγS, Adenosine 5′-(γ-thio)triphosphate] yielded a relative responsiveness (rP2X4R I205A mutant) of 11.3±2.2 %, a relative responsiveness (rP2X4R T210A mutant) of 34.2±4.1 % and a relative responsiveness (rP2X4R T211A mutant) of 61.8±6.1%.

With `CC[C@H](C)[C@H]1O[C@]2(CC[C@@H]1C)C[C@@H]1C[C@@H](C/C=C(\C)[C@@H](O[C@H]3C[C@H](OC)[C@@H](O[C@H]4C[C@H](OC)[C@@H](O)[C@H](C)O4)[C@H](C)O3)[C@@H](C)/C=C/C=C3\CO[C@@H]4[C@H](O)C(C)=C[C@@H](C(=O)O1)[C@]34O)O2` [IVM, ivermectin] the “Fold incr. Imax” value (rP2X4R I205A mutant; [5]) was 5.5 ± 0.6 fold, the “Fold incr. Imax” value (rP2X4R T210A mutant; [5]) was 1.8 ± 0.2 fold and the “Fold incr. Imax” value (rP2X4R T211A mutant; [5]) was 1.6 ± 0.3 fold.

For `Nc1ncnc2c1ncn2C1OC(COP(=O)(O)CP(=O)(O)OP(=O)(O)O)C(O)C1O` (stereo not drawn) [α,β-meATP, α,β-methyleneadenosine 5′-triphosphate], the relative responsiveness (rP2X4R I205A mutant) was 4.6±1.0 %, the relative responsiveness (rP2X4R T210A mutant) was 8.8±2.3 % and the relative responsiveness (rP2X4R T211A mutant) was 39.1±7.2%.
